Measured values as given in patent US8470787B2, “Hydrates of erythromycin salts, preparation and use thereof” (priority 2008, dated 2013).
Read-outs that look alike come from different tables or passages of the source.

Columns and labels:
[1] = accelerated stability test (sealed vial, 30° C., HPLC content and related substances); format: physicochemical
Method: The hydrates of erythromycin salts according to the present invention can be stably stored. A sample of the above hydrates was sealed in a vial, and an accelerated stability test was conducted at 30° C. and changes of the content and related substances were measured by a HPLC method (C18 reverse phase column, 0.01M KH2PO4-acetonitrile (60:40) as the mobile phase, detective wavelength: 215 nm, column temperature: 35° C., flow rate: 1.0 ml/min) (upon different hydrates of erythromycin salts, such as crystalline hydrates of erythromycin thiocyanate, the pH of the mobile phase can be adjusted and KH2PO4 can be changed into NaH2PO4, the detective wavelength can be changed into 210 nm, and the column temperature can be set at 35-55° C., such as 50° C. for analysis and measurement). […] As compared to the anhydrous of erythromycin salt, the hydrates of erythromycin salts according to the present invention have a lower hygroscopicity, i.e., has a better stability of hygroscopicity, which facilitates the package and storage thereof, or is a more advantageously stable form for storage relative to the anhydrous.

[2] = tested on: Staphylococcus aureus; assay: antibacterial activity, tube double dilution method, clinically obtained bacteria; format: cell-based; details: 26 strains
[3] = tested on: Staphylococcus epidermidis; assay: as above; format: cell-based; details: 21 strains
[4] = tested on: Streptococcus hemolyticus; assay: as above; format: cell-based; details: for MIC50 / MIC90: 16 strains; for MIC: range over 16 strains
Method: (§1) The antibacterial activities of the hydrates of erythromycin salts are determined by culturing clinically obtained bacteria and measuring in accordance with pharmacological test methods (the tube double dilution method), and the results are shown in the following tables 9, 10, 11 and 12.

[5] = tested on: Propionibacterium; assay: as above; format: cell-based; details: for MIC50 / MIC90: 18 strains; for MIC: range over 18 strains
Method: as §1

[6] = tested on: Bacillus influenzae; assay: as above; format: cell-based; details: for MIC50 / MIC90: 17 strains; for MIC: range over 17 strains
Method: as §1

[7] = tested on: Pneumococcus; assay: as above; format: cell-based; details: for MIC50 / MIC90: 18 strains; for MIC: range over 18 strains
Method: as §1

[8] = tested on: Neisseria gonorrhoeae; assay: as above; format: cell-based; details: for MIC50 / MIC90: 16 strains; for MIC: range over 16 strains
Method: as §1

[9] = tested on: Bacillus fragilis; assay: as above; format: cell-based; details: for MIC50 / MIC90: 15 strains; for MIC: range over 15 strains
Method: as §1

[10] = tested on: Streptococcus viridan; assay: as above; format: cell-based; details: 23 strains
[11] = tested on: Escherichia coli; assay: as above; format: cell-based; details: 21 strains
[12] = tested on: Anaerobe; assay: as above; format: cell-based
Method: as §1

[13] = hygroscopic test according to China Pharmacopeia CP2005; format: physicochemical; details: RH 75%, 25° C., 48 h

Q: Which results are given for CC[C@H]1OC(=O)[C@H](C)[C@@H](O[C@H]2C[C@@](C)(OC)[C@@H](O)[C@H](C)O2)[C@H](C)[C@@H](O[C@@H]2O[C@H](C)C[C@H](N(C)C)[C@H]2O)[C@](C)(O)C[C@@H](C)C(=O)[C@H](C)[C@@H](O)[C@]1(C)O [erythromycin lactobionate trihydrate]?
A: Assay (%) ([1]; month 0): 99.9%; Form ([1]; month 0): off-white powder; Assay (%) ([1]; month 1): 100.2%; Form ([1]; month 1): off-white powder; Assay (%) ([1]; month 2): 99.8%; Form ([1]; month 2): off-white powder; Assay (%) ([1]; month 3): 100.1%; Form ([1]; month 3): off-white powder; Assay (%) ([1]; month 6): 99.9%; Form ([1]; month 6): off-white powder; MIC50 ([2]; Staphylococcus aureus, read-out: MIC50): 0.12 µg/mL; MIC50 ([3]; Staphylococcus epidermidis, read-out: MIC50): 16 µg/mL; MIC50 ([4]; Streptococcus pyogenes, read-out: MIC50): 0.06 µg/mL; MIC90 ([4]; Streptococcus pyogenes, read-out: MIC90): 32 µg/mL; MIC [4]: 0.03 to 32 µg/mL; MIC50 ([5]; Propionibacterium, read-out: MIC50): 0.06 µg/mL; MIC90 ([5]; Propionibacterium, read-out: MIC90): 0.12 µg/mL; MIC ([5]; Propionibacterium, read-out: MIC): 0.03 to 16 µg/mL; MIC50 ([6]; Bacillus, read-out: MIC50): 4 µg/mL; MIC90 ([6]; Bacillus, read-out: MIC90): 8 µg/mL; MIC ([6]; Bacillus, read-out: MIC): 0.12 to 8 µg/mL; MIC50 ([7]; read-out: MIC50): 0.06 µg/mL; MIC90 ([7]; read-out: MIC90): 1 µg/mL; MIC ([7]; read-out: MIC): 0.03 to 0.5 µg/mL; MIC50 ([8]; Neisseria gonorrhoeae, read-out: MIC50): 0.25 µg/mL; MIC90 ([8]; Neisseria gonorrhoeae, read-out: MIC90): 1 µg/mL; MIC ([8]; Neisseria gonorrhoeae, read-out: MIC): 0.06 to 2 µg/mL; MIC50 ([9]; Bacillus, read-out: MIC50): 4 µg/mL; MIC90 ([9]; Bacillus, read-out: MIC90): 16 µg/mL; MIC ([9]; Bacillus, read-out: MIC): 0.5 to 64 µg/mL; MIC50 ([10]; Streptococcus, read-out: MIC50): 0.06 µg/mL; MIC90 ([10]; Streptococcus, read-out: MIC90): 0.5 µg/mL; MIC50 ([11]; Escherichia coli, read-out: MIC50): 4 µg/mL

Q: Which “Assay (%)” value ([1]; month 0) does the source give for CC[C@H]1OC(=O)[C@H](C)[C@@H](O[C@H]2C[C@@](C)(OC)[C@@H](O)[C@H](C)O2)[C@H](C)[C@@H](O[C@@H]2O[C@H](C)C[C@H](N(C)C)[C@H]2O)[C@](C)(O)C[C@@H](C)C(=O)[C@H](C)[C@@H](O)[C@]1(C)O.N#CS.O.O [erythromycin thiocyanate dihydrate] here?
A: The value was 99.9%.

Q: And the Form ([1]; month 0)?
A: The Form was “off-white powder”.

Q: What about the “Assay (%)” value ([1]; month 1) of the same compound?
A: The value was 99.9%.

Q: And the Form ([1]; month 1)?
A: Its Form is “off-white powder”.

Q: What about the “Assay (%)” value ([1]; month 2) of the same compound?
A: Its value is 100.4%.

Q: What about the Form ([1]; month 2) of the same compound?
A: Its Form is “off-white powder”.

Q: And the “Assay (%)” value ([1]; month 3)?
A: Its value is 100.2%.

Q: And the Form ([1]; month 3)?
A: Its Form is “off-white powder”.

Q: And the “Assay (%)” value ([1]; month 6)?
A: The value was 99.8%.

Q: And the Form ([1]; month 6)?
A: Its Form is “off-white powder”.

Q: And the MIC50 [2]?
A: The MIC50 was 0.12 µg/mL.

Q: What about the MIC50 [3] of the same compound?
A: The MIC50 was 16 µg/mL.

Q: And the MIC50 [4]?
A: The MIC50 was 0.06 µg/mL.

Q: What about the MIC90 [4] of the same compound?
A: The MIC90 was 32 µg/mL.

Q: What about the MIC [4] of the same compound?
A: Its MIC is 0.03 to 32 µg/mL.

Q: And the MIC50 [5]?
A: Its MIC50 is 0.06 µg/mL.

Q: What about the MIC90 [5] of the same compound?
A: The MIC90 was 0.12 µg/mL.

Q: And the MIC [5]?
A: Its MIC is 0.03 to 16 µg/mL.

Q: And the MIC50 [6]?
A: The MIC50 was 4 µg/mL.

Q: What about the MIC90 [6] of the same compound?
A: The MIC90 was 8 µg/mL.

Q: What about the MIC [6] of the same compound?
A: The MIC was 0.12 to 8 µg/mL.

Q: And the MIC50 [7]?
A: Its MIC50 is 0.06 µg/mL.

Q: What about the MIC90 [7] of the same compound?
A: The MIC90 was 1 µg/mL.

Q: And the MIC [7]?
A: The MIC was 0.03 to 0.5 µg/mL.

Q: And the MIC50 [8]?
A: The MIC50 was 0.25 µg/mL.

Q: And the MIC90 [8]?
A: Its MIC90 is 1 µg/mL.

Q: And the MIC [8]?
A: The MIC was 0.06 to 2 µg/mL.

Q: And the MIC50 [9]?
A: Its MIC50 is 4 µg/mL.

Q: And the MIC90 [9]?
A: The MIC90 was 16 µg/mL.

Q: And the MIC [9]?
A: The MIC was 0.5 to 64 µg/mL.

Q: And the MIC50 ([12]; 16 strains)?
A: The MIC50 was 2 µg/mL.

Q: What about the MIC90 ([12]; 16 strains) of the same compound?
A: Its MIC90 is 16 µg/mL.

Q: And the MIC ([12]; range over 16 strains)?
A: The MIC was 0.06 to 64 µg/mL.

Q: What about the MIC50 [10] of the same compound?
A: Its MIC50 is 0.06 µg/mL.

Q: And the MIC90 [10]?
A: The MIC90 was 0.5 µg/mL.

Q: And the MIC50 [11]?
A: Its MIC50 is 4 µg/mL.

Q: With CC[C@H]1OC(=O)[C@H](C)[C@@H](O[C@H]2C[C@@](C)(OC)[C@@H](O)[C@H](C)O2)[C@H](C)[C@@H](O[C@@H]2O[C@H](C)C[C@H](N(C)C)[C@H]2O)[C@](C)(O)C[C@@H](C)C(=O)[C@H](C)[C@@H](O)[C@]1(C)O.N#CS.O.O.O [erythromycin thiocyanate trihydrate] as the compound, how does the “Assay (%)” value ([1]; month 0) read?
A: The value was 99.8%.

Q: And the Form ([1]; month 0)?
A: The Form was “off-white powder”.

Q: What about the “Assay (%)” value ([1]; month 1) of the same compound?
A: Its value is 99.9%.

Q: And the Form ([1]; month 1)?
A: The Form was “off-white powder”.

Q: And the “Assay (%)” value ([1]; month 2)?
A: Its value is 100.6%.

Q: What about the Form ([1]; month 2) of the same compound?
A: The Form was “off-white powder”.

Q: What about the “Assay (%)” value ([1]; month 3) of the same compound?
A: Its value is 100.3%.

Q: What about the Form ([1]; month 3) of the same compound?
A: Its Form is “off-white powder”.

Q: What about the “Assay (%)” value ([1]; month 6) of the same compound?
A: Its value is 100.1%.

Q: What about the Form ([1]; month 6) of the same compound?
A: Its Form is “off-white powder”.

Q: Which “Assay (%)” value ([1]; month 0) does the source give for “erythromycin thiocyanate hemitri(1.5)hydrate” here?
A: The value was 99.9%.

Q: And the Form ([1]; month 0)?
A: Its Form is “off-white powder”.

Q: What about the “Assay (%)” value ([1]; month 1) of the same compound?
A: Its value is 100.3%.

Q: And the Form ([1]; month 1)?
A: The Form was “off-white powder”.

Q: What about the “Assay (%)” value ([1]; month 2) of the same compound?
A: Its value is 100.5%.

Q: What about the Form ([1]; month 2) of the same compound?
A: The Form was “off-white powder”.

Q: What about the “Assay (%)” value ([1]; month 3) of the same compound?
A: Its value is 100.1%.

Q: What about the Form ([1]; month 3) of the same compound?
A: Its Form is “off-white powder”.

Q: What about the “Assay (%)” value ([1]; month 6) of the same compound?
A: The value was 100.2%.

Q: What about the Form ([1]; month 6) of the same compound?
A: Its Form is “off-white powder”.

Q: And the “Hygroscopic weight gain %, relative to 0 h” value [13]?
A: Its value is 3.12%.
